Entries after “also recorded” stand apart in the source; their conditions may differ. Where two headings read alike, the source gives them in different places.
How the values were obtained:
[1] = In vitro blood cell partitioning; type: in vitro ADME; conditions: 10 and 100 nmol/L, internal communication, data not shown
[2] = test system: hypothalamus-pituitary-adrenal (HPA) axis; assay: Hormones of the HPA axis; type: in vivo, human; conditions: all dose groups, during treatment
[3] = cited from earlier work
HPA axis = assay: Total urinary corticosteroid excretion; type: in vivo, human
[4] = BI 187004 concentration in subcutaneous adipose tissue biopsies; conditions: gMean (%gCV); for BI 187004 AT Cday15: 24 h after last dose; for BI 187004 AT Cday2: immediately after second dose
Metabolic parameters = type: in vivo, human
[5] = In vitro plasma protein binding; type: in vitro ADME; conditions: internal communication, data not shown
[6] = type: in vivo, human; conditions: for BI 187004 Plasma Cday15: 24 h after last dose; for BI 187004 Plasma Cday15 / fe0–24 / CL/F SS / fe0–24,SS / BI 187004 Plasma Cday2 / Cmax: gMean (%gCV); for BI 187004 Plasma Cday2: immediately after second dose; for CL renal / Vd/F / AUC / AUC(0-t) / half-life / Cmax / Tmax: human, oral; for CL renal: plasma and urine; for Vd/F / AUC / AUC(0-t) / half-life / Cmax / Tmax: plasma; for Tmax: t max, median (min–max)
[7] = human, in vivo

N#Cc1ccc2c(c1)[C@H]1CCCN(C(=O)c3ccc4[nH]cnc4c3)[C@H]1C2 [BI 187004]
clinical laboratory evaluations and vital signs (Safety and tolerability; 10–360 mg over 14 days): no notable findings
hypoglycemic episodes (Safety and tolerability; 10–360 mg over 14 days): No hypoglycemic episodes were reported
intensity of AEs (Safety and tolerability; all dose groups): mild or moderate intensity
serious AE or death (Safety and tolerability; during the trial): No serious AE or death occurred
AE leading to discontinuation of treatment (Safety and tolerability; one patient, 360 mg, day 6, drug-related, moderate intensity): supraventricular tachycardia
pollakiuria (AE) (Safety and tolerability; total BI 187004 group (6 patients, all 80–360 mg)): 10.7%
gastrointestinal disorders (AE) (Safety and tolerability; total BI 187004 group (9 patients)): 16.1%
nervous system disorders (only disorder: headache) (Safety and tolerability; total BI 187004 group (11 patients)): 19.6%
frequency of patients reported with any AE (Safety and tolerability; total BI 187004 group (33 patients)): 58.9%
incidence of drug-related adverse events (Safety and tolerability; total BI 187004 group, 10–360 mg once daily over 14 days (n=29)): 51.8%
blood cell partitioning [1]: no difference in blood cell partitioning at low concentrations
mean ACTH levels [2]: increased but within the normal range
drug-related AEs ([3]; SRD study, healthy volunteers): 16.7%
half-life ([3]; single dose 5 mg, healthy volunteers): 33.5 h
half-life ([3]; single dose 360 mg, healthy volunteers): 13.9 h
increase of total urinary corticosteroid excretion ([3]; single doses 2.5–360 mg): up to 2 fold
total urinary corticosteroid excretion, % of baseline, range over dose groups (HPA axis; after 14 days of treatment): 176.2–253.5%
total urinary corticosteroid excretion increased to (HPA axis; highest dose-group value): 253.5%
increase in total urinary corticosteroid excretion (HPA axis; multiple doses, 14 days): 2.48 fold
BI 187004 AT Cday15 ([4]; 10 mg): 45.5 (37.0) nmol/L
BI 187004 AT Cday2 ([4]; 10 mg): 34.5 (38.3) nmol/L
BI 187004 AT Cday15 ([4]; 20 mg): 66.1 (25.5) nmol/L
BI 187004 AT Cday2 ([4]; 20 mg): 51.8 (83.7) nmol/L
BI 187004 AT Cday15 ([4]; 40 mg): 74.2 (29.6) nmol/L
BI 187004 AT Cday2 ([4]; 40 mg): 142 (72.1) nmol/L
BI 187004 AT Cday15 ([4]; 80 mg): 140 (28.4) nmol/L
BI 187004 AT Cday2 ([4]; 80 mg): 142 (55.9) nmol/L
BI 187004 AT Cday15 ([4]; 160 mg): 238 (56.6) nmol/L
BI 187004 AT Cday2 ([4]; 160 mg): 518 (65.7) nmol/L
BI 187004 AT Cday15 ([4]; 240 mg): 245 (62.8) nmol/L
BI 187004 AT Cday2 ([4]; 240 mg): 872 (54.6) nmol/L
BI 187004 AT Cday15 ([4]; 360 mg): 454 (29.3) nmol/L
BI 187004 AT Cday2 ([4]; 360 mg): 925 (41.7) nmol/L
fasting plasma glucose over the treatment period (Metabolic parameters; 14 days): not affected
body weight (Metabolic parameters; baseline, day 15, end-of-trial): remained unchanged; also recorded: Changes in body weight could not be observed
plasma protein binding [5]: no increase in plasma protein binding down to 10 nmol/L
BI 187004 Plasma Cday15 ([6]; 10 mg): 322 (37.4) nmol/L
fe0–24 ([6]; 10 mg, Day 1): 5.72 (27.2) %
CL/F SS ([6]; 10 mg, Day 14): 2.01 (28.2) L/h
fe0–24,SS ([6]; 10 mg, Day 14): 10.3 (26.6) %
BI 187004 Plasma Cday2 ([6]; 10 mg): 156 (56.1) nmol/L
BI 187004 Plasma Cday15 ([6]; 20 mg): 520 (25.6) nmol/L
fe0–24 ([6]; 20 mg, Day 1): 6.14 (20.8) %
CL/F SS ([6]; 20 mg, Day 14): 2.53 (24.7) L/h
fe0–24,SS ([6]; 20 mg, Day 14): 9.83 (24.1) %
BI 187004 Plasma Cday2 ([6]; 20 mg): 291 (23.3) nmol/L
BI 187004 Plasma Cday15 ([6]; 40 mg): 744 (25.8) nmol/L
fe0–24 ([6]; 40 mg, Day 1): 3.82 (27.3) %
CL/F SS ([6]; 40 mg, Day 14): 3.16 (21.1) L/h
fe0–24,SS ([6]; 40 mg, Day 14): 6.31 (26.7) %
BI 187004 Plasma Cday2 ([6]; 40 mg): 511 (23.9) nmol/L
BI 187004 Plasma Cday15 ([6]; 80 mg): 1,360 (24.8) nmol/L
fe0–24 ([6]; 80 mg, Day 1): 4.15 (39.3) %
CL/F SS ([6]; 80 mg, Day 14): 3.97 (26.4) L/h
fe0–24,SS ([6]; 80 mg, Day 14): 6.05 (27.0) %
BI 187004 Plasma Cday2 ([6]; 80 mg): 1,020 (30.0) nmol/L
BI 187004 Plasma Cday15 ([6]; 160 mg): 2,430 (54.7) nmol/L
fe0–24 ([6]; 160 mg, Day 1): 5.12 (11.6) %
CL/F SS ([6]; 160 mg, Day 14): 3.69 (37.9) L/h
fe0–24,SS ([6]; 160 mg, Day 14): 6.82 (21.6) %
BI 187004 Plasma Cday2 ([6]; 160 mg): 1,660 (57.7) nmol/L
BI 187004 Plasma Cday15 ([6]; 240 mg): 2,280 (76.0) nmol/L
fe0–24 ([6]; 240 mg, Day 1): 4.87 (24.4) %
fe0–24,SS ([6]; 240 mg, Day 14): 5.83 (22.7) %
BI 187004 Plasma Cday2 ([6]; 240 mg): 2,420 (50.6) nmol/L
BI 187004 Plasma Cday15 ([6]; 360 mg): 2,780 (19.6) nmol/L
fe0–24 ([6]; 360 mg, Day 1): 5.11 (22.4) %
CL/F SS ([6]; 360 mg, Day 14): 6.47 (12.3) L/h
fe0–24,SS ([6]; 360 mg, Day 14): 6.46 (8.01) %
BI 187004 Plasma Cday2 ([6]; 360 mg): 2,660 (36.5) nmol/L
dose proportionality of Cmax and AUCτ,ss ([6]; 10 to 360 mg): increased non-proportionally
time of absorption ([6]; 10–360 mg): ≤ 2 h
gMean oral clearance (CL/F,ss), range over dose groups ([6]; 10–360 mg, day 14): 2.01 to 6.47 L/h
accumulation in plasma ([6]; between days 1 and 14): limited
CL renal ([6]; 10 mg): 3.72 mL/min
CL renal ([6]; 20 mg): 4.3 mL/min
CL renal ([6]; 40 mg): 2.68 mL/min
CL renal ([6]; 80 mg): 3.47 mL/min
CL renal ([6]; 160 mg): 3.78 mL/min
CL renal ([6]; 240 mg): 4.38 mL/min
CL renal ([6]; 360 mg): 6.4 mL/min
Vd/F [6]: 195 to 1160 L
AUC ([6]; 10 mg): 14.5 µM·h
AUC(0-t) ([6]; 10 mg): 7.5 µM·h
Vd/F ([6]; 10 mg): 308 L
half-life ([6]; 10 mg): 106 h
Cmax ([6]; 10 mg, C max, 10 mg, Day 1): 0.681 µM
Cmax ([6]; 10 mg, C max,SS, 10 mg, Day 14): 1.24 µM
Tmax ([6]; 10 mg, 10 mg, Day 1): 2 h
Tmax ([6]; 10 mg, SS, 10 mg, Day 14): 0.834 h
AUC ([6]; 20 mg): 23 µM·h
AUC(0-t) ([6]; 20 mg): 13.9 µM·h
Vd/F ([6]; 20 mg): 253 L
half-life ([6]; 20 mg): 69.2 h
Cmax ([6]; 20 mg, C max, 20 mg, Day 1): 1.37 µM
Cmax ([6]; 20 mg, C max,SS, 20 mg, Day 14): 1.94 µM
Tmax ([6]; 20 mg, 20 mg, Day 1): 0.834 h
Tmax ([6]; 20 mg, SS, 20 mg, Day 14): 0.834 h
AUC ([6]; 40 mg): 26.9 µM·h
AUC(0-t) ([6]; 40 mg): 27.7 µM·h
Vd/F ([6]; 40 mg): 195 L
half-life ([6]; 40 mg): 42.8 h
Cmax ([6]; 40 mg, C max, 40 mg, Day 1): 2.92 µM
Cmax ([6]; 40 mg, C max,SS, 40 mg, Day 14): 3.4 µM
Tmax ([6]; 40 mg, 40 mg, Day 1): 1 h
Tmax ([6]; 40 mg, SS, 40 mg, Day 14): 0.834 h
AUC ([6]; 80 mg): 58.8 µM·h
AUC(0-t) ([6]; 80 mg): 46.5 µM·h
Vd/F ([6]; 80 mg): 346 L
half-life ([6]; 80 mg): 60.3 h
Cmax ([6]; 80 mg, C max, 80 mg, Day 1): 4.32 µM
Cmax ([6]; 80 mg, C max,SS, 80 mg, Day 14): 4.93 µM
Tmax ([6]; 80 mg, 80 mg, Day 1): 0.834 h
Tmax ([6]; 80 mg, SS, 80 mg, Day 14): 1.25 h
AUC ([6]; 160 mg): 127 µM·h
AUC(0-t) ([6]; 160 mg): 106 µM·h
Vd/F ([6]; 160 mg): 230 L
half-life ([6]; 160 mg): 43.1 h
Cmax ([6]; 160 mg, C max, 160 mg, Day 1): 11.5 µM
Cmax ([6]; 160 mg, C max,SS, 160 mg, Day 14): 12.1 µM
Tmax ([6]; 160 mg, 160 mg, Day 1): 1 h
Tmax ([6]; 160 mg, SS, 160 mg, Day 14): 0.667 h
AUC ([6]; 240 mg): 145 µM·h
AUC(0-t) ([6]; 240 mg): 130 µM·h
Vd/F ([6]; 240 mg): 359 L
half-life ([6]; 240 mg): 51.5 h
Cmax ([6]; 240 mg, C max, 240 mg, Day 1): 14.6 µM
Cmax ([6]; 240 mg, C max,SS, 240 mg, Day 14): 15 µM
Tmax ([6]; 240 mg, 240 mg, Day 1): 1 h
Tmax ([6]; 240 mg, SS, 240 mg, Day 14): 0.667 h
AUC ([6]; 360 mg): 162 µM·h
AUC(0-t) ([6]; 360 mg): 140 µM·h
Vd/F ([6]; 360 mg): 1160 L
half-life ([6]; 360 mg): 124 h
Cmax ([6]; 360 mg, C max, 360 mg, Day 1): 14.3 µM
Cmax ([6]; 360 mg, C max,SS, 360 mg, Day 14): 15.5 µM
Tmax ([6]; 360 mg, 360 mg, Day 1): 1 h
Tmax ([6]; 360 mg, SS, 360 mg, Day 14): 1.5 h
general disorders and administration site conditions (AE, system organ class) [7]: 14.3%

— publication PMC9811530 (Experimental and Clinical Endocrinology & Diabetes, 2022)
